Where “and” joins values, the source holds several entries; their conditions need not be identical. Equal values may be shown once. Read-outs that look alike come from different tables or passages of the source.
How the values were obtained:
[1] = test system: fowl roundworm (Ascaridia galli); test: Anthelmintic test in chickens artificially infected with fowl roundworm, single oral dose in gelatin capsule, worm bodies counted within 48 hours (Test Examples A1, B1, C1, D1); format: in vivo; conditions: Ascaridia galli, po, 48 h, chicken, chickens No.1-3, read-out: Anthelmintic effect after 48 hours; for inhibition in vivo at 30 mg/kg: 30 mg/Kg oral in gelatin capsule
Procedure, shortened: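 Anthelmintic percentage derived from counts of worms passed within 48 h plus worms left in the intestine after killing at 48 h. Infection confirmed by fecal examination in three-bird groups; compound given orally once in gelatin capsules at 10/20 (A1, B1), 30/50 (C1) or 15/30 (D1) mg/kg.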

[2] = test system: fowl roundworm (As. galli); test: Anthelmintic test in chickens artificially infected with fowl roundworm, compound added to feed, E.P.G. and worm count up to 21st day (Test Examples A2, B2, C2, D2); format: in vivo, Ascaridia galli; conditions: chicken; for inhibition in vivo at 25 ppm / inhibition in vivo at 50 ppm: Ascaridia galli, feed or water, 504 h, read-out: Anthelmintic effect
[3] = test system: canine roundworm (Toxocara canis); test: Anthelmintic test in naturally infected dogs with mixed infections, E.P.G. on 7th day: canine roundworm (Test Examples A3, B3, C3, D3); format: in vivo; conditions: dog; for Change of E.P.G. 7th day: one administration
Procedure: (§1) Three dogs with mixed infections by canine whipworm (Trichuris vulpis), canine hookworm (Ancylostoma caninum) and canine roundworm (Toxocara canis) (naturally infected dogs) were employed in a group of two and a group of one.
(§2) The compound provided for the test was Compound No.Al, and 20 mg/Kg thereof was placed in a gelatin capsule per 1 Kg of body weight, and administered orally to the two dogs. As control, only a gelatin capsule was administered orally to the one dog.
(§3) Before administration and on the 7th day after administration, fecal matter testing was conducted to calculate the E.P.G., and the anthelmintic effect was judged by the changing of the E.P.G. to negative.
(§4) As control, only gelatin capsules were administered orally to the one dog.
(§5) The same method as in Test Example A3, but the compound provided for the test was Compound No. Cl. 30 mg/Kg of this compound was placed in a gelatin capsule per 1 Kg of body weight and administered orally to the two dogs. As control, only gelatin capsules were administered orally to the one dog.

[4] = test system: canine hookworm (Ancylostoma caninum); test: Anthelmintic test in naturally infected dogs with mixed infections, E.P.G. on 7th day: canine hookworm (Test Examples A3, B3, C3, D3); format: in vivo; conditions: dog; for Change of E.P.G. 7th day: one administration
Procedure: as §1, §2, §3, §4, §5

[5] = test system: canine filaria; Dirofilaria immitis; test: Test of anthelmintic effect against canine filaria in naturally infected dogs, subcutaneous injection, microfilaria in blood and adult filaria at autopsy (Test Examples A10, B10, C10, D10); format: in vivo; conditions: for inhibition in vivo at 30 mg/kg: Dirofilaria immitis, sc, 240 h
[6] = test system: canine whipworm (Trichuris vulpis); test: Anthelmintic test in naturally infected dogs with mixed infections, E.P.G. on 7th day: canine whipworm (Test Examples A3, B3, C3, D3); format: in vivo; conditions: for Change of E.P.G. 7th day: one administration; for anthelmintic effect: dogs with mixed infections (Trichuris vulpis, Ancylostoma caninum, Toxocara canis; statement covers all three)
Procedure: as §1, §2, §3, §4, §5

[7] = test system: stomach worm (Haemonchus controtus); test: Anthelmintic test against cow stomach worm in naturally infected cows, E.P.G. on 7th day (Test Examples A6, B6, C6, D6); format: in vivo; conditions: for Change of E.P.G. 7th day / Change of E.P.G. Before administration: cow, Haemonchus controtus; for Change of E.P.G. 7th day: one administration; for anthelmintic effect: cows
Procedure: Three cows infected with stomach worm (naturally infected cows) were employed by grouping them into a group of two and a group of one.
(§6) As control, only gelatin capsules were administered orally to the one cow.
as §3, §6, §6

[8] = test system: swine whipworm (Trichuris suis); test: Test of anthelmintic effect in naturally infected pigs, E.P.G. on 7th day: swine whipworm (Test Examples A9, B9, C9, D9); format: in vivo; conditions: pig
Procedure: (§7) Six pigs infected with swine roundworm and swine whipworm (naturally infected pigs) were employed in groups each of two pigs.
(§8) As a control, only gelatin capsules were administered orally to the two pigs.
(§9) Before administration and on the 7th day after. administration, fecal matter testing was conducted to calculate the E.P.G., and the anthelmintic effect was judged by the changing of the E.P.G. to negative'.
(§10) 50 mg of each compound was placed in a gelatin capsule per 1 Kg of body weight and administered orally to each of the two pigs. As control, only gelatin capsules were administered orally to two pigs.
(§11) 30 mg of each compound was placed in a gelatin capsule per 1 Kg of body weight and administered orally to each of the two pigs. As control, only gelatin capsules were administered orally to two pigs.

[9] = test system: Trichostrongylidae (Trichostrongylus colubriformis); test: Anthelmintic test against sheep Trichostrongylidae in naturally infected sheep, E.P.G. on 7th day (Test Examples A7, B7, C7, D7); format: in vivo
Procedure: Two sheep infected with Trichostrongylidae (naturally infected sheep) were employed.
The compound provided for the test was Compound No. Al, 15 mg of which was placed in a gelatin capsule per 1 Kg of body weight and administered orally to one of the sheep. As a control, only gelatin capsules were administered orally to the other sheep.
as §3
As control, only gelatin capsules were administered orally to the other sheep.
As control, only gelatin capsule was administered orally to the other sheep.

[10] = test system: swine roundworm (Ascaris suum); test: Test of anthelmintic effect in naturally infected pigs, E.P.G. on 7th day: swine roundworm (Test Examples A9, B9, C9, D9); format: in vivo; conditions: pig, Ascaris suum
Procedure: as §7, §8, §9, §10, §11

[11] = test system: Liver fluke; Fasciola hepatica (F. hepatica); test: Test of anthelmintic effect against rat infected experimentally with liver fluke (Test Examples A11, B11, C11, D11); format: in vivo
[12] = 30 mg/Kg oral in gelatin capsule
[13] = before 30 mg/Kg oral (baseline)
[14] = before 20 mg/Kg (baseline), hydrochloride

Q: How did the inhibition in vivo at 30 mg/kg [1] turn out when C=CCON(CC=C)C(C)=O [Compound C1, N,O-diallyl-N-acetylhydroxyl- amine] was run?
A: Its inhibition in vivo at 30 mg/kg is 100%.

Q: And the inhibition in vivo at 50 mg/kg ([1]; 50 mg/Kg oral in gelatin capsule)?
A: The inhibition in vivo at 50 mg/kg was 100%.

Q: And the inhibition in vivo at 25 ppm ([2]; 25 ppm in feed)?
A: The inhibition in vivo at 25 ppm was 100%.

Q: What about the inhibition in vivo at 50 ppm ([2]; 50 ppm in feed) of the same molecule?
A: Its inhibition in vivo at 50 ppm is 100%.

Q: What about the “Change of E.P.G. 21st day” value ([2]; 25 ppm in feed) of the same molecule?
A: The value was 0.

Q: What about the “Change of E.P.G. 21st day” value ([2]; 50 ppm in feed) of the same molecule?
A: Its value is 0.

Q: What about the “Change of E.P.G. 7th day” value [3, 12] of the same molecule?
A: The value was 0.

Q: What about the “Change of E.P.G. Before administration” value [3, 13] of the same molecule?
A: Its value is 3,300 and 3,100.

Q: What about the “Change of E.P.G. 7th day” value [4, 12] of the same molecule?
A: Its value is 0.

Q: What about the “Change of E.P.G. Before administration” value [4, 13] of the same molecule?
A: Its value is 4,500 and 6,600.

Q: What about the inhibition in vivo at 30 mg/kg ([5]; dog, 30 mg/Kg x 3, subcutaneous injection, read-out: Effect on adult filaria: Percent of worms killed) of the same molecule?
A: Its inhibition in vivo at 30 mg/kg is 86%.

Q: What about the inhibition in vivo at 30 mg/kg ([5]; dogs, administration of 30 mg/Kg repeated three times, given as about 50% or more, read-out: anthelmintic effect against adult filaria) of the same molecule?
A: Its inhibition in vivo at 30 mg/kg is at least 50%.

Q: What about the “Number of microfilaria/20 µl On 10th day after the last administration” value ([5]; dog, 30 mg/Kg x 3, subcutaneous injection, suspension in 1% Tween 80) of the same molecule?
A: Its value is 0 /20 µl.

Q: And the “Effect on adult filaria: Number of worms killed/ Total parasite” value ([5]; dog, 30 mg/Kg x 3, subcutaneous injection, 30 mg/kg)?
A: The value was 13/15 and 16/21.

Q: What about the “anthelmintic effect against microfilaria (mf)” value ([5]; dogs, administration of 30 mg/Kg repeated three times) of the same molecule?
A: The value was “marked anthelmintic effect”.

Q: And the “Change of E.P.G. 7th day” value ([6]; dog, Trichuris vulpis, 30 mg/Kg oral in gelatin capsule)?
A: Its value is 0.

Q: What about the “Change of E.P.G. Before administration” value ([6]; dog, Trichuris vulpis, before 30 mg/Kg oral (baseline)) of the same molecule?
A: Its value is 2,300 and 4,200.

Q: And the “anthelmintic effect” value ([6]; one administration of 30 mg/Kg)?
A: Its value is “marked anthelmintic effect”.

Q: And the “Change of E.P.G. 7th day” value ([7]; 20 mg/Kg oral in gelatin capsule)?
A: The value was 0.

Q: What about the “Change of E.P.G. Before administration” value ([7]; before 20 mg/Kg oral (baseline)) of the same molecule?
A: The value was 2,200 and 1,400.

Q: What about the “anthelmintic effect” value ([7]; one administration of 20 mg/Kg) of the same molecule?
A: The value was “marked anthelmintic effect”.

Q: C=CCNOCC.Cl [Compound D1, N-allyl-O-ethylhydroxylamine hydrochloride] was tested. Which inhibition in vivo at 15 mg/kg ([1]; 15 mg/Kg oral in gelatin capsule) did it give?
A: The inhibition in vivo at 15 mg/kg was 80 to 90%.

Q: What about the inhibition in vivo at 30 mg/kg [1] of the same molecule?
A: Its inhibition in vivo at 30 mg/kg is 100%.

Q: And the “Change of E.P.G. 7th day” value ([8]; 20 mg/Kg, one administration)?
A: Its value is 0.

Q: What about the “Change of E.P.G. Before administration” value [8, 14] of the same molecule?
A: Its value is 6,600 and 4,200.

Q: What about the inhibition in vivo at 25 ppm ([2]; 25 ppm in feed) of the same molecule?
A: The inhibition in vivo at 25 ppm was 80 to 90%.

Q: And the inhibition in vivo at 50 ppm ([2]; 50 ppm in feed)?
A: Its inhibition in vivo at 50 ppm is 100%.

Q: And the “Change of E.P.G. 7th day” value ([9]; Trichostrongylus colubriformis, 15 mg/Kg, one administration)?
A: The value was 0.

Q: What about the “Change of E.P.G. Before administration” value ([9]; Trichostrongylus colubriformis, before 15 mg/Kg (baseline)) of the same molecule?
A: The value was 2,900.

Q: And the “anthelmintic effect” value ([9]; one administration of 15 mg/Kg)?
A: Its value is “marked anthelmintic effect”.

Q: What about the “Change of E.P.G. 7th day” value ([10]; 20 mg/Kg, one administration) of the same molecule?
A: Its value is 0.

Q: And the “Change of E.P.G. Before administration” value [10, 14]?
A: Its value is 2,700 and 3,100.

Q: And the “Change of E.P.G. 7th day” value ([7]; 15 mg/Kg)?
A: The value was 0.

Q: And the “Change of E.P.G. Before administration” value ([7]; before 15 mg/Kg (baseline), hydrochloride)?
A: The value was 3,700 and 5,400.

Q: What about the “anthelmintic effect” value ([7]; one administration of 15 mg/Kg) of the same molecule?
A: The value was “marked anthelmintic effect”.

Q: C#CCNOCC=C.Cl [Compound D14, N-propargyl-O-allylhydroxylamine hydrochloride] was tested. Which inhibition in vivo at 25 ppm ([2]; 25 ppm in feed) did it give?
A: The inhibition in vivo at 25 ppm was 80 to 90%.

Q: What about the inhibition in vivo at 50 ppm ([2]; 50 ppm in feed) of the same molecule?
A: Its inhibition in vivo at 50 ppm is 100%.

Q: And the “Change of E.P.G. 7th day” value ([3]; 20 mg/Kg)?
A: Its value is 0.

Q: And the “Change of E.P.G. 7th day” value ([4]; 20 mg/Kg)?
A: The value was 0.

Q: What about the “Change of E.P.G. Before administration” value [4, 14] of the same molecule?
A: Its value is 3,300 and 6,800.

Q: What about the “Change of E.P.G. 7th day” value ([6]; dog, Trichuris vulpis, 20 mg/Kg) of the same molecule?
A: Its value is 0.

Q: And the “anthelmintic effect” value ([6]; one administration of 20 mg/Kg)?
A: Its value is “marked anthelmintic effect”.

Q: And the “Condition of fluke bodies” value ([11]; rat, 50 mg/Kg x 5)?
A: The value was “dead”.

Q: What about the “Presence or absence of fluke egg in fecal matter On 21st day after the last administration” value ([11]; rat, 50 mg/Kg x 5) of the same molecule?
A: The value was “-”.

Q: What about the “anthelmintic effect” value ([11]; rats, five administrations in a dose of 50 mg/Kg each) of the same molecule?
A: Its value is “marked anthelmintic effect”.
